EP0565674B1, “METHOD FOR MEMORY ENHANCEMENT AND QUALITY OF LIFE IMPROVEMENT” (CITY OF HOPE, priority 1991, dated 1993)
Where a name gives a salt, the structure may show the parent alone.

Experiments:
CD-1 male mice [1] = experiment: T-maze footshock active avoidance training (FAAT), retention after 1 week, well-trained mice, prevention of DMSO-induced amnesia; settings: for trials to criterion compared with DMSO alone / saline alone: 3.5X10^-10 mol icv 2-3 min after FAAT, in DMSO, retention tested one week later, groups of 15 mice
Description: (§1) Test Animals. After 1 week in the laboratory, CD-1 male mice obtained from Charles River Breeding Laboratories were caged individually 24-48 hr prior to training and remained singly housed until retention was tested 1 week later. Animal rooms were on a 12-hr light/dark cycle with lights going on at the hour of 0600.
(§2) With the exception of pregnenolone sulfate, all of the substances were dissolved in appropriate amounts of pure DMSO and 2 µl of DMSO alone or containing test substance was injected icv into each mouse after training. Pregnenolone sulfate was dissolved in DMSO and diluted with physiological saline to a final concentration of 1% DMSO or less in saline, and the results of, injections of 2 µl of solutions containing pregnenolone sulfate were compared with those obtained with 2 µl of such saline solutions alone.
(§3) Apparatus, Training and Testing Procedures. The T-maze used for footshock active avoidance training (FAAT) consisted of a black plastic alley (46 cm long) with a start box at one end and two goal boxes (17.5 cm long) at the other. The start box was separated from the alley by a plastic guillotine door that prevented movement down the alley until training began. The alley was 12.5 cm deep and 9.8 cm wide. An electrifiable stainless steel rod floor ran throughout the maze.
(§4) Mice were not permitted to explore the maze before training. A block of training trials began when a mouse was placed in the start box. The guillotine door was raised and a muffled doorbell-type buzzer sounded simultaneously; footshock was 5 sec later through a scrambled grid floor shocker (Colbourn Instruments, model E13-08). The goal box first entered during the first set of trials was designated as "incorrect", and footshock was continued until the mouse entered the other goal box, which in all subsequent trials was designated "correct" for the particular mouse. At the end of each group of trials, the mouse was removed to its home cage.
As training proceeded, a mouse made one of two types of responses. A response latency longer than 5 sec was classed as an escape from the footshock. A response latency less than or equal to 5 sec was considered an avoidance, since the mouse avoided receiving a footshock. Two exclusion criteria were applied to reduce learning variability among mice, as follows. On the first training trials, mice with escape latencies greater than 20 sec were discarded. Mice not having at least one errorless escape latency between 1.5 and 3.5 sec on training trials 3 or 4 were excluded. The total exclusions were fewer than 15%. Mice received five such training trials. One week after training and post-trial administration of vehicle alone or vehicle containing test substance, T-maze training was resumed until each mouse made five avoidance responses in six consecutive training trials (trials to criterion). The recall score was taken to be the percentage of tested mice remembering original training.
In these instances, training was performed under conditions that tend to maximize learning (sound intensity, 65 decibels; footshock current, 0.35 mA; intertrial interval, 45 s).
Surgical Procedure in Preparation for Intracerebroventricular (icv) Administration of Substances. Icv injection was the mode of administration of test substances because this eliminates problems of differential penetration of the blood-brain barrier. The following procedure was performed 24-48 hr prior to training.

CD-1 male mice [2] = experiment: T-maze footshock active avoidance training (FAAT), retention after 1 week, weakly trained mice, memory enhancement
Description: as §1, §2, §3, §4
As training proceeded, a mouse made one of two types of responses. A response latency longer than 5 sec was classed as an escape from the footshock. […]

SMILES	trials to criterion compared with DMSO alone / saline alone (CD-1 male mice [1])	also measured
C[C@]12CC[C@H](O)CC1=CC[C@@H]1[C@@H]2CC[C@]2(C)C(=O)CC[C@@H]12 [DHEA, 5-androsten-3β-ol-17-one]	significantly fewer trials to criterion than mice receiving DMSO alone	–
CC(=O)[C@H]1CC[C@H]2[C@@H]3CCC4=CC(=O)CC[C@]4(C)[C@H]3CC[C@]12C [progesterone, 4-pregnen-3,20-dione]	significantly different from those obtained with DMSO alone and significantly greater than those receiving saline alone	–
C[C@]12CC[C@@H]3c4ccc(O)cc4CC[C@H]3[C@@H]1CC[C@@H]2O [estradiol, 1,3,5(10)-estratrien-3,17β-diol]	significantly different from those obtained with DMSO alone and significantly greater than those receiving saline alone	–
CC(=O)C1CCC2C3CC=C4CC(OS(=O)(=O)O)CCC4(C)C3CCC12C (stereo not drawn) [pregnenolone sulfate, 5-pregnen-3β-ol-20-one sulfate, sodium salt]	–	potency relative to DHEA (CD-1 male mice [2]; memory enhancement in mice): ~1000 times; potency relative to pregnenolone (CD-1 male mice [2]; memory enhancement in mice): approximately 10 times
C[C@]12CCC(=O)C=C1CC[C@@H]1[C@@H]2CC[C@]2(C)C(=O)CC[C@@H]12 [androstenedione, 4,androsten-3,17-dione]	significantly fewer trials to criterion than mice receiving DMSO alone	–
C[C@]12CC[C@H]3[C@@H](CCC4=CC(=O)CC[C@@]43C)[C@@H]1CC[C@@H]2O [testosterone, 4-androsten-17β-ol-3-one]	significantly fewer trials to criterion than mice receiving DMSO alone	–
CC(=O)[C@H]1CC[C@H]2[C@@H]3CC=C4C[C@@H](O)CC[C@]4(C)[C@H]3CC[C@]12C [pregnenolone, 5-pregnen-3β-ol-20-one]	significantly fewer trials to criterion than mice receiving DMSO alone	potency on a molar basis relative to the other two substances tested (DHEA, testosterone) (CD-1 male mice [1]; from dose-response curves): at least 100 times; trials to criterion (CD-1 male mice [2]; weakly trained mice, 3.5X10^-15 mol per mouse icv, p < 0.05 vs vehicle controls (9.30±0.47), mean ± SEM): 7.70±0.55
C[C@]12CC[C@@H]3c4ccc(O)cc4CC[C@H]3[C@@H]1CCC2=O [estrone, 1,3,5(10)-estratrien-3-ol-17-one]	significantly different from those obtained with DMSO alone and significantly greater than those receiving saline alone	–
C[C@]12CC[C@H](OS(=O)(=O)O)CC1=CC[C@@H]1[C@@H]2CC[C@]2(C)C(=O)CC[C@@H]12 [DHEAS, dehydroepiandrosterone sulfate]	significantly fewer trials to criterion than mice receiving DMSO alone	–
C[C@]12CCC(=O)C[C@@H]1CC[C@@H]1[C@@H]2CC[C@]2(C)[C@@H](O)CC[C@@H]12 [dihydrotestosterone, 5α-androstan-17β-ol-3-one]	significantly fewer trials to criterion than mice receiving DMSO alone	–
C[C@]12CCC(=O)C=C1CC[C@@H]1[C@@H]2[C@@H](O)C[C@]2(C=O)[C@@H](C(=O)CO)CC[C@@H]12 [aldosterone, 4-pregnen-11β,21-diol-3,18,20-trione]	significantly fewer trials to criterion than mice receiving DMSO alone	–
